A short description of this series: Fuel solubility: blends with commercial diesel. It is filed as physicochemical. The text has this:
Fuel solubility is a primary concern for diesel fuel applications. Not all highly polar oxygenates have good solubility in the current commercial diesel fuels.

Read-outs that look alike come from different tables or passages of the source.

With `CCOCc1ccc(C=O)o1` [EMF, ethoxymethylfurfural], the “miscibility with commercial diesel” value is given as “completely miscible” (5 vol % blend with commercial diesel), “phase separation occurs” (25 vol % blend with commercial diesel) and “phase separation occurs” (40 vol % blend with commercial diesel).

Consider `CCCCCCCCOCc1ccc(C=O)o1` [OMF, 5-(octyloxymethyl)furfural], for which the “miscibility with commercial diesel” value is “completely miscible”.

These data come from US20100218415A1, “HYDROXYMETHYLFURFURAL ETHERS FROM SUGARS AND HIGHER ALCOHOLS” (FURANIX TECHNOLOGIES B.V., priority 2007, published 2010).
